Data reported in US12559492B2, “BRAF degraders” (C4 Therapeutics, Inc., priority 2020, dated 2026).

Molecular target: BRAF^V600E protein (Homo sapiens, UniProt P15056, V600E)
Assay: HiBiT cellular BRAF V600E degradation assay
Assay type: cell-based
Settings: 24 h incubation; for DC50: A375.10 cells (HiBiT tag knocked in at N-terminal of BRAF V600E), concentration at which 50% of total cellular BRAF V600E is degraded; for Emax / HiBit 24 h Emax: A375.10 cells, Emax = amount of residual protein remaining in the cell after compound treatment; for Emax: read-out: HiBit 24 h Emax
Description: DMEM no-phenol red medium supplemented with L-glutamine was purchased from (Corning). Fetal bovine serum (FBS) was purchased from Gibco (Grand Island, NY, USA). Nano-Glo® HiBiT Lytic Assay Buffer & Reagents were purchased from Promega (Madison, WI, USA). […] Cell culture flasks and 384-well black flat-bottom polystyrene TC-treated microplates were acquired from Corning (Corning, NY, USA).
HiBiT Cellular BRAFv^600E Degradation Assay
Prior to the assay, the A375.10 cell line is maintained in DMEM no-phenol red medium supplemented with 10% fetal bovine serum (FBS). […] Briefly, test compounds were added to the 384-well plate from a top concentration of 10 μM with 11 half log dilutions of compound, plated in duplicate. Then, 30 uL of a suspension of A375.10 cell lines was dispensed into columns 1-24 of the 384-well plates at a cell density of 7500 cells per well. The plates were kept at 37° C. with 5% CO2 for the duration of the assay (6 or 24 hr). After the desired incubation time with compound, 30 uL of Nano-Glo® HiBiT Lytic Buffer containing LgBiT protein (diluted 1:100) and luminescence substrate (diluted 1:50) were added to the cells in columns 1-23 of the assay plate. The plate was the incubated for 30 min on the bench at room temperature. Finally, HiBiT luminescence signal was acquired on EnVision™ Multilabel Reader (PerkinElmer, Santa Clara, CA, USA).
Quantification of luminescence responses measured in the presence of compound were normalized to a high signal/no degradation control (untreated cells+lytic detection reagent) and a low signal/full degradation control (untreated cells, no lytic detection reagent). Data were analyzed with a 4-parameter logistic fit to generate sigmoidal dose-response curves. […] The Emax, or maximum effect of each compound, represents the amount of residual protein remaining in the cell following compound treatment.

Chain of BRAF^V600E protein (P15056 whole entry V600E): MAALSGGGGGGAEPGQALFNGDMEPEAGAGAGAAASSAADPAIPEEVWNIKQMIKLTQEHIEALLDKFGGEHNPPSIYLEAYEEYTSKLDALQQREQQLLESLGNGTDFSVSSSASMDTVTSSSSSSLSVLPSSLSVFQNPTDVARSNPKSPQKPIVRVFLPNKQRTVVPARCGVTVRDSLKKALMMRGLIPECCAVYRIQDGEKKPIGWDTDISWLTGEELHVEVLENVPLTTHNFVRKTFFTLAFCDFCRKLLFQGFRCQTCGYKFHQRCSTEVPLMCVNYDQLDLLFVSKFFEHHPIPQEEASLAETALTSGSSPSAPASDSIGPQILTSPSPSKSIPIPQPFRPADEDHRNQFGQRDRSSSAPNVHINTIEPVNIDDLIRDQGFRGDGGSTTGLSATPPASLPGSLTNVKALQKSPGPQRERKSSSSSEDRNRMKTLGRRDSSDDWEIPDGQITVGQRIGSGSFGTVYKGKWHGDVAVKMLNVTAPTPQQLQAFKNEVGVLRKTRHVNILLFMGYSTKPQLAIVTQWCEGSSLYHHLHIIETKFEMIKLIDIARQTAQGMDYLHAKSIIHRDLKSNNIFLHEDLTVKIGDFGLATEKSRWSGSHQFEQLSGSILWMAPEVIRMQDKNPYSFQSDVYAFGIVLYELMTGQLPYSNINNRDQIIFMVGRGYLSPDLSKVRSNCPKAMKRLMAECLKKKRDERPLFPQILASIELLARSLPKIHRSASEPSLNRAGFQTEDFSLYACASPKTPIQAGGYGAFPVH

Row | Structure (SMILES) | DC50 | Emax | HiBit 24 h Emax
1 | CC(C)S(=O)(=O)Nc1ccc(F)c(C(=O)c2c[nH]c3ncc(-c4cnc(N5CCN(C(=O)CN6CCC(c7ccc(OC8CCC(=O)NC8=O)cc7)CC6)CC5)nc4)cc23)c1F (centres unmarked) [Example 7, N-[3-[5-[2-[4-[2-[4-[4-[(2,6-dioxo-3-piperidyl)oxy]phenyl]-1-piperidyl]acetyl]piperazin-1-yl]pyrimidin-5-yl]-1H-pyrrolo[2,3-b]pyridine-3-carbonyl]-2,4-difluoro-phenyl]propane-2-sulfonamide] | 12.5 nM | 10.3% | –
2 | CC(C)S(=O)(=O)Nc1ccc(F)c(C(=O)c2c[nH]c3ncc(-c4cnc(N5CCN(C(=O)CN6CCC(c7ccc(C8CCC(=O)NC8=O)cc7F)CC6)CC5)nc4)cc23)c1F (centres unmarked) [Example 9, N-[3-[5-[2-[4-[2-[4-[4-(2,6-dioxo-3-piperidyl)-2-fluoro-phenyl]-1-piperidyl]acetyl]piperazin-1-yl]pyrimidin-5-yl]-1H-pyrrolo[2,3-b]pyridine-3-carbonyl]-2,4-difluoro-phenyl]propane-2-sulfonamide] | 10.7 nM | 3.41% | –
3 | CC(C)S(=O)(=O)Nc1ccc(F)c(C(=O)c2c[nH]c3ncc(-c4ccc(N5CCN(C(=O)CN6CCC(c7ccc(NC8CCC(=O)NC8=O)cc7F)CC6)CC5)nc4)cc23)c1F (centres unmarked) [Example 12, N-[3-[5-[6-[4-[2-[4-[4-[(2,6-dioxo-3-piperidyl)amino]-2-fluoro-phenyl]-1-piperidyl]acetyl]piperazin-1-yl]-3-pyridyl]-1H-pyrrolo[2,3-b]pyridine-3-carbonyl]-2,4-difluoro-phenyl]propane-2-sulfonamide] | 9.73 nM | 8.03% | –
4 | CC(C)S(=O)(=O)Nc1ccc(F)c(C(=O)c2c[nH]c3ncc(-c4ccc(N5CCN(C(=O)CN6CCC(c7ccc(OC8CCC(=O)NC8=O)cc7)CC6)CC5)nc4)cc23)c1F (centres unmarked) [Example 13, N-[3-[5-[6-[4-[2-[4-[4-[(2,6-dioxo-3-piperidyl)oxy]phenyl]-1-piperidyl]acetyl]piperazin-1-yl]-3-pyridyl]-1H-pyrrolo[2,3-b]pyridine-3-carbonyl]-2,4-difluoro-phenyl]propane-2-sulfonamide] | 20.9 nM | 9.56% | –
5 | CC(C)S(=O)(=O)Nc1ccc(F)c(C(=O)c2c[nH]c3ncc(-c4ccc(N5CCN(C(=O)CN6CCC(c7ccc(C8CCC(=O)NC8=O)cc7F)CC6)CC5)nc4)cc23)c1F (centres unmarked) [Example 15, N-[3-[5-[6-[4-[2-[4-[4-(2,6-dioxo-3-piperidyl)-2-fluoro-phenyl]-1-piperidyl]acetyl]piperazin-1-yl]-3-pyridyl]-1H-pyrrolo[2,3-b]pyridine-3-carbonyl]-2,4-difluoro-phenyl]propane-2-sulfonamide] | 9.59 nM | 2.65% | –
6 | CCN(C)S(=O)(=O)Nc1ccc(F)c(C(=O)c2c[nH]c3ncc(-c4cnc(N5CCN(C(=O)CN6CCN(c7ccc(NC8CCC(=O)NC8=O)cc7)CC6)CC5)nc4)cc23)c1F (centres unmarked) [Example 19, 5-[2-[4-[2-[4-[4-[(2,6-dioxo-3-piperidyl)amino]phenyl]piperazin-1-yl]acetyl]piperazin-1-yl]pyrimidin-5-yl]-3-[3-[[ethyl(methyl)sulfamoyl]amino]-2,6-difluoro-benzoyl]-1H-pyrrolo[2,3-b]pyridine] | 8.57 nM | – | 11.26%
7 | CCN(C)S(=O)(=O)Nc1ccc(F)c(C(=O)c2c[nH]c3ncc(-c4cnc(N5CCN(C(=O)CN6CCC(c7ccc(N(C)C8CCC(=O)NC8=O)cc7)CC6)CC5)nc4)cc23)c1F (centres unmarked) [Example 22, 5-[2-[4-[2-[4-[4-[(2,6-dioxo-3-piperidyl)-methyl-amino]phenyl]-1-piperidyl]acetyl]piperazin-1-yl]pyrimidin-5-yl]-3-[3-[[ethyl(methyl)sulfamoyl]amino]-2,6-difluoro-benzoyl]-1H-pyrrolo[2,3-b]pyridine] | 19.4 nM | – | 18.02%

Further lines, results first:

Row | DC50 | Emax | HiBit 24 h Emax | Structure (SMILES)
8 | 5.59 nM | 7.96% | – | CC(C)S(=O)(=O)Nc1ccc(F)c(C(=O)c2c[nH]c3ncc(-c4cnc(N5CCN(C(=O)CN6CCC(c7ccc(NC8CCC(=O)NC8=O)cc7F)CC6)CC5)nc4)cc23)c1F (centres unmarked) [Example 6, N-[3-[5-[2-[4-[2-[4-[4-[(2,6-dioxo-3-piperidyl)amino]-2-fluoro-phenyl]-1-piperidyl]acetyl]piperazin-1-yl]pyrimidin-5-yl]-1H-pyrrolo[2,3-b]pyridine-3-carbonyl]-2,4-difluoro-phenyl]propane-2-sulfonamide]
9 | 4.67 nM | 2.37% | – | CC(C)S(=O)(=O)Nc1ccc(F)c(C(=O)c2c[nH]c3ncc(-c4cnc(N5CCN(C(=O)CN6CCC(c7ccc(C8CCC(=O)NC8=O)cc7)CC6)CC5)nc4)cc23)c1F (centres unmarked) [Example 8, N-[3-[5-[2-[4-[2-[4-[4-(2,6-dioxo-3-piperidyl)phenyl]-1-piperidyl]acetyl]piperazin-1-yl]pyrimidin-5-yl]-1H-pyrrolo[2,3-b]pyridine-3-carbonyl]-2,4-difluoro-phenyl]propane-2-sulfonamide]
10 | 4.45 nM | 8.46% | – | CC(C)S(=O)(=O)Nc1ccc(F)c(C(=O)c2c[nH]c3ncc(-c4cnc(N5CCN(C(=O)CN6CCC(c7ccc8c(N9CCC(=O)NC9=O)nn(C)c8c7)CC6)CC5)nc4)cc23)c1F [Example 10, N-[3-[5-[2-[4-[2-[4-[3-(2,4-dioxohexahydropyrimidin-1-yl)-1-methyl-indazol-6-yl]-1-piperidyl]acetyl]piperazin-1-yl]pyrimidin-5-yl]-1H-pyrrolo[2,3-b]pyridine-3-carbonyl]-2,4-difluoro-phenyl]propane-2-sulfonamide]
11 | 5.08 nM | 7.97% | – | CC(C)S(=O)(=O)Nc1ccc(F)c(C(=O)c2c[nH]c3ncc(-c4ccc(N5CCN(C(=O)CN6CCC(c7ccc(NC8CCC(=O)NC8=O)cc7)CC6)CC5)nc4)cc23)c1F (centres unmarked) [Example 11, N-[3-[5-[6-[4-[2-[4-[4-[(2,6-dioxo-3-piperidyl)amino]phenyl]-1-piperidyl]acetyl]piperazin-1-yl]-3-pyridyl]-1H-pyrrolo[2,3-b]pyridine-3-carbonyl]-2,4-difluoro-phenyl]propane-2-sulfonamide]
12 | 8.56 nM | 3.41% | – | CC(C)S(=O)(=O)Nc1ccc(F)c(C(=O)c2c[nH]c3ncc(-c4ccc(N5CCN(C(=O)CN6CCC(c7ccc(C8CCC(=O)NC8=O)cc7)CC6)CC5)nc4)cc23)c1F (centres unmarked) [Example 14, N-[3-[5-[6-[4-[2-[4-[4-(2,6-dioxo-3-piperidyl)phenyl]-1-piperidyl]acetyl]piperazin-1-yl]-3-pyridyl]-1H-pyrrolo[2,3-b]pyridine-3-carbonyl]-2,4-difluoro-phenyl]propane-2-sulfonamide]
13 | 2.85 nM | – | 7.93% | CCN(C)S(=O)(=O)Nc1ccc(F)c(C(=O)c2c[nH]c3ncc(-c4cnc(N5CCN(C(=O)CN6CCC(c7ccc(NC8CCC(=O)NC8=O)cc7)CC6)CC5)nc4)cc23)c1F (centres unmarked) [Example 18, 5-[2-[4-[2-[4-[4-[(2,6-dioxo-3-piperidyl)amino]phenyl]-1-piperidyl]acetyl]piperazin-1-yl]pyrimidin-5-yl]-3-[3-[[ethyl(methyl)sulfamoyl]amino]-2,6-difluoro-benzoyl]-1H-pyrrolo[2,3-b]pyridine]
14 | 7.1 nM | 11.9% | – | CCN(C)S(=O)(=O)Nc1ccc(F)c(C(=O)c2c[nH]c3ncc(-c4cnc(N5CCN(C(=O)CN6CCC(c7ccc(NC8CCC(=O)NC8=O)cn7)CC6)CC5)nc4)cc23)c1F (centres unmarked) [Example 21, 5-[2-[4-[2-[4-[5-[(2,6-dioxo-3-piperidyl)amino]-2-pyridyl]-1-piperidyl]acetyl]piperazin-1-yl]pyrimidin-5-yl]-3-[3-[[ethyl(methyl)sulfamoyl]amino]-2,6-difluoro-benzoyl]-1H-pyrrolo[2,3-b]pyridine]
15 | 5.59 nM | – | 7.88% | CCN(C)S(=O)(=O)Nc1ccc(F)c(C(=O)c2c[nH]c3ncc(-c4cnc(N5CCN(C(=O)CN6CCC(c7ccc(N8CCC(=O)NC8=O)cc7)CC6)CC5)nc4)cc23)c1F [Example 24, 5-[2-[4-[2-[4-[4-(2,4-dioxohexahydropyrimidin-1-yl)phenyl]-1-piperidyl]acetyl]piperazin-1-yl]pyrimidin-5-yl]-3-[3-[[ethyl(methyl)sulfamoyl]amino]-2,6-difluoro-benzoyl]-1H-pyrrolo[2,3-b]pyridine]
16 | 3.63 nM | 6.36% | – | CCN(C)S(=O)(=O)Nc1ccc(F)c(C(=O)c2c[nH]c3ncc(-c4cnc(N5CCN(C(=O)CN6CCC(c7ccc(N[C@H]8CCC(=O)NC8=O)cc7)CC6)CC5)nc4)cc23)c1F [Example 25, 5-[2-[4-[2-[4-[4-[[(3S)-2,6-dioxo-3-piperidyl]amino]phenyl]-1-piperidyl]acetyl]piperazin-1-yl]pyrimidin-5-yl]-3-[3-[[ethyl(methyl)sulfamoyl]amino]-2,6-difluoro-benzoyl]-1H-pyrrolo[2,3-b]pyridine]
